In ChEMBL document CHEMBL1135773, “Purine and pyrimidine (P2) receptors as drug targets” (J Med Chem, 2002):

Columns and labels:
P2Y purinoceptor 1 [1] = molecular target: T1, P2Y purinoceptor 1 (Homo sapiens, UniProt P47900); assay: Dissociation constant at P2Y purinoceptor 1 (P2Y1) from guinea pig taenia coli; parameters: species or system Cavia porcellus; conditions: target entry is the homologue from another species
P2X purinoceptor 1 [2] = molecular target: T2, P2X purinoceptor 1 (Rattus norvegicus, UniProt P47824); assay: The compound was evaluated for antagonist activity against P2X purinoceptor 1 (P2X1) from rat vas deferens; assay type: functional
T2 sequence (P47824 whole entry): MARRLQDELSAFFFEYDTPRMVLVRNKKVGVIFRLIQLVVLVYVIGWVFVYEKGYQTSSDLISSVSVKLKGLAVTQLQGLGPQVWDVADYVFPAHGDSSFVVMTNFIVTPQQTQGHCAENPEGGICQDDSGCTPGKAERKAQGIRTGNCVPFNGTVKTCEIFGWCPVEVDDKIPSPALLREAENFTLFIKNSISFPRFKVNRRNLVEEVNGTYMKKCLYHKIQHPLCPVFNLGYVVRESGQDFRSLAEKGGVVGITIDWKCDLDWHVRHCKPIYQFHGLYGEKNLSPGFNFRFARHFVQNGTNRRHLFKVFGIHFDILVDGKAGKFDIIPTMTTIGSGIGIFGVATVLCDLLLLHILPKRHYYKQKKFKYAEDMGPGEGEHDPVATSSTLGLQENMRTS

P2X purinoceptor 1 [3] = molecular target: T3, P2X purinoceptor 1 (Rattus norvegicus, UniProt P47824); assay: Dissociation constant of the compound at P2X purinoceptor 1 (P2X1) from rat vas deferens was reported
P2X purinoceptor 1 [4] = molecular target: T3, P2X purinoceptor 1; assay: The compound was evaluated for antagonist activity against P2X purinoceptor 1 (P2X1) receptor from rat vas deferens; assay type: functional
[5] = molecular target: P2Y purinoceptor 1 (Cavia porcellus); assay: The compound was evaluated for antagonistic activity at P2Y purinoceptor 1 (P2Y1) from guinea pig taenia coli
P2X purinoceptor 4 [6] = molecular target: T4, P2X purinoceptor 4 (Homo sapiens, UniProt Q99571); assay: Antagonist activity against recombinant human P2X purinoceptor 4 (P2X4); assay type: functional
T4 sequence (Q99571 whole entry): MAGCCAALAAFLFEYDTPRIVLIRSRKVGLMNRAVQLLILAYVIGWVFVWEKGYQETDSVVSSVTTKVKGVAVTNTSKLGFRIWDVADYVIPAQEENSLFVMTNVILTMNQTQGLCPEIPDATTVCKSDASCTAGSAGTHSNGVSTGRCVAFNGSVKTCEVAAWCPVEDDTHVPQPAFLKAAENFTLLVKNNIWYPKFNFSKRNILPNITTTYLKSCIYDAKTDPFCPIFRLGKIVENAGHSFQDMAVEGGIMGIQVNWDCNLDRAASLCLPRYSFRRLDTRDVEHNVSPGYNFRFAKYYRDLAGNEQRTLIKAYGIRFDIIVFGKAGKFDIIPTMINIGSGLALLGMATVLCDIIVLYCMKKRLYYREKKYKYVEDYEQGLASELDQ

P2X purinoceptor 2 [7] = molecular target: T5, P2X purinoceptor 2 (Rattus norvegicus, UniProt P49653); assay: Antagonist activity against recombinant rat receptor P2X purinoceptor 2 (P2X2) at 10 uM, expressed in Xenopus oocytes; assay type: functional, cell-based, Oocyte
T5 sequence (P49653 whole entry): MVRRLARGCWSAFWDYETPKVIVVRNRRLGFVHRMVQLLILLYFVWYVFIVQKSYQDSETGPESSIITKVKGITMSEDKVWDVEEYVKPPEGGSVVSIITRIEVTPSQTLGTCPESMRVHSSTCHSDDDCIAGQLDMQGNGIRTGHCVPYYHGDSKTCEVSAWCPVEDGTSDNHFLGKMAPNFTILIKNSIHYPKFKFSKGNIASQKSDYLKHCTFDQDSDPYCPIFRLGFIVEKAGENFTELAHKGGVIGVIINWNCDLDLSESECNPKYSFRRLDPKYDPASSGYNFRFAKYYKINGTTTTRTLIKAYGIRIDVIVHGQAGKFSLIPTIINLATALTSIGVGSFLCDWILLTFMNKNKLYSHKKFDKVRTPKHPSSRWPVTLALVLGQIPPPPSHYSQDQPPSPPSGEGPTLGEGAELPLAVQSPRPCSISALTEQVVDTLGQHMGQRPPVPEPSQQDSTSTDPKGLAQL

P2Y purinoceptor 2 = P2Y purinoceptor 2 (Homo sapiens, UniProt P41231); assay: Evaluated for agonist activity against phospholipase C coupled recombinant human P2Y purinoceptor 2 (P2Y2); assay type: functional
P2Y purinoceptor 2, sequence (P41231 whole entry): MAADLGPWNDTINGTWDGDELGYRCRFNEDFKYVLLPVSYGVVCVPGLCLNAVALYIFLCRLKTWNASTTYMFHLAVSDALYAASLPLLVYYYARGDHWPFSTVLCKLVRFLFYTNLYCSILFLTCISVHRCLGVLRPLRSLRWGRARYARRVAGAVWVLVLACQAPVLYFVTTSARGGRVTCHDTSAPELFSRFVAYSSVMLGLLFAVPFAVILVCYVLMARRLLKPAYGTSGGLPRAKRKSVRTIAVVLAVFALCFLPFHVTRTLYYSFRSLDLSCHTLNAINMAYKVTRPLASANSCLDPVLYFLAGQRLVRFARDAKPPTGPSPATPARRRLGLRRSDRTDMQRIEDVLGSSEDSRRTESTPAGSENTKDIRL

P2Y purinoceptor 11 = molecular target: T6, P2Y purinoceptor 11 (Homo sapiens, UniProt Q96G91); assay: Agonist activity against phospholipase C coupled human P2Y purinoceptor 11 (P2Y11); assay type: functional
T6 sequence (Q96G91 whole entry): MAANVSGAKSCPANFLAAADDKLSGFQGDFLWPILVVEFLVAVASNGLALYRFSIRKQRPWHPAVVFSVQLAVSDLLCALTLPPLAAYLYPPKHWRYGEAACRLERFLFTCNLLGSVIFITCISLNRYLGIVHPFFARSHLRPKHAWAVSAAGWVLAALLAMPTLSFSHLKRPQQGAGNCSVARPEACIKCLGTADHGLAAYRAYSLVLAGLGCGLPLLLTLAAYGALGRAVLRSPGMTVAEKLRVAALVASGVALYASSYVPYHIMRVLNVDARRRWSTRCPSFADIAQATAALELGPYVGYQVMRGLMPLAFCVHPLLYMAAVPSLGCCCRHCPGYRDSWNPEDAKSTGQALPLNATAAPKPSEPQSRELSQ

P2Y purinoceptor 12 = P2Y purinoceptor 12 (Rattus norvegicus, UniProt Q9EPX4); assay: Antagonist activity against phospholipase C coupled rat P2Y purinoceptor 12 (P2Y12); assay type: functional
P2Y purinoceptor 12, sequence (Q9EPX4 whole entry): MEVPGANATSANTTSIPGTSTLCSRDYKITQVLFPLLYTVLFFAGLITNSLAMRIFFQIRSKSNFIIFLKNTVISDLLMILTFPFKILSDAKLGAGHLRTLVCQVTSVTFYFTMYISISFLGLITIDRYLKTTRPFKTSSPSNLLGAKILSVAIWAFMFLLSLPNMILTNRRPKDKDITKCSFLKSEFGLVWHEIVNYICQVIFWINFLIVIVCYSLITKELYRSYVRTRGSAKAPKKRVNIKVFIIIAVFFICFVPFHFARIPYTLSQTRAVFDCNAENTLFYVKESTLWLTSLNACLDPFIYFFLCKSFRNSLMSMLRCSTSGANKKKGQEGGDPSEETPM

P2Y purinoceptor 1 [8] = molecular target: P2Y purinoceptor 1 (Meleagris gallopavo, UniProt P49652); assay: Evaluated for antagonist activity agonist phospholipase C coupled P2Y purinoceptor 1 (P2Y1) of turkey erythrocytes; assay type: functional
P2Y purinoceptor 1 (Meleagris gallopavo, UniProt P49652), sequence (P49652 whole entry): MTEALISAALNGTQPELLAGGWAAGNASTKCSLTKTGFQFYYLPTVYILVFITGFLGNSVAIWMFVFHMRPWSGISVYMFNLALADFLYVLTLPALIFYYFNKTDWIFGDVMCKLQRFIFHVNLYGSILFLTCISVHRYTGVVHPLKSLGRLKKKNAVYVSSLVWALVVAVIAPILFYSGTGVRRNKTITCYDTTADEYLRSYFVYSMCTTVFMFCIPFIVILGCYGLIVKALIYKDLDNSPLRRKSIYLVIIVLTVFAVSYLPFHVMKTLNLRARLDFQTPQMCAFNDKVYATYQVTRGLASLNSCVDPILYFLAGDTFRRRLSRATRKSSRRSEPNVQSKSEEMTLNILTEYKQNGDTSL

P2Y purinoceptor 1 [9] = molecular target: T1, P2Y purinoceptor 1; assay: Evaluated for agonist activity against phospholipase C coupled P2Y purinoceptor 1 (P2Y1) of human erythrocytes; assay type: functional
P2X purinoceptor 4 [10] = molecular target: T7, P2X purinoceptor 4 (Rattus norvegicus, UniProt P51577); assay: Antagonist activity against recombinant rat P2X purinoceptor 4 (P2X4) at 3 uM, expressed in Xenopus oocytes; assay type: functional, cell-based, Oocyte
T7 sequence (P51577 whole entry): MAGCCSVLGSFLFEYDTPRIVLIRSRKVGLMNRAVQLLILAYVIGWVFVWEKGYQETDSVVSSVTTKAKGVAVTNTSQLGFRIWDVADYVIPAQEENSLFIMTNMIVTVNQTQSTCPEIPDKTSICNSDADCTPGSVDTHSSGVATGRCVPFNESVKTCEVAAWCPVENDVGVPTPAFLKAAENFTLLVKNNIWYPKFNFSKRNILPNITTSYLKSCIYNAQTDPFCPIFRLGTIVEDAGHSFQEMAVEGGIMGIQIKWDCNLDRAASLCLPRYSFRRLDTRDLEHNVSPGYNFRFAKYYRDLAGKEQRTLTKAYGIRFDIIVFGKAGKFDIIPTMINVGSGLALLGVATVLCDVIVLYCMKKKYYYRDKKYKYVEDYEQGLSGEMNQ

P2X purinoceptor 5 = molecular target: T8, P2X purinoceptor 5 (Rattus norvegicus, UniProt P51578); assay: Antagonist activity against recombinant rat P2X purinoceptor 5 (P2X5); assay type: functional
T8 sequence (P51578 whole entry): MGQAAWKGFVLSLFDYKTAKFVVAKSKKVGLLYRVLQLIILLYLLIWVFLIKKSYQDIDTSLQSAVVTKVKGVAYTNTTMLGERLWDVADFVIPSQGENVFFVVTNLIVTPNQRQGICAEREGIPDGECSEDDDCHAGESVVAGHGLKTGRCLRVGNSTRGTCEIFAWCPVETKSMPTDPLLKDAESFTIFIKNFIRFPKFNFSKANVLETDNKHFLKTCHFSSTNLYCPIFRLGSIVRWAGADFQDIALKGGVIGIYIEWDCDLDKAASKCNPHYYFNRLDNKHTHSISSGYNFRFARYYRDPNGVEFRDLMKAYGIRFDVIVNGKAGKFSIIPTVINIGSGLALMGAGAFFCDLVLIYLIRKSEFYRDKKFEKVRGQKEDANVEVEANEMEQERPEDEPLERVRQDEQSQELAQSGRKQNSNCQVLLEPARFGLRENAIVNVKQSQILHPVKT

P2X purinoceptor 6 = P2X purinoceptor 6 (Rattus norvegicus, UniProt P51579); assay: Antagonist activity against recombinant rat P2X purinoceptor 6 (P2X6 ); assay type: functional
P2X purinoceptor 6, sequence (P51579 whole entry): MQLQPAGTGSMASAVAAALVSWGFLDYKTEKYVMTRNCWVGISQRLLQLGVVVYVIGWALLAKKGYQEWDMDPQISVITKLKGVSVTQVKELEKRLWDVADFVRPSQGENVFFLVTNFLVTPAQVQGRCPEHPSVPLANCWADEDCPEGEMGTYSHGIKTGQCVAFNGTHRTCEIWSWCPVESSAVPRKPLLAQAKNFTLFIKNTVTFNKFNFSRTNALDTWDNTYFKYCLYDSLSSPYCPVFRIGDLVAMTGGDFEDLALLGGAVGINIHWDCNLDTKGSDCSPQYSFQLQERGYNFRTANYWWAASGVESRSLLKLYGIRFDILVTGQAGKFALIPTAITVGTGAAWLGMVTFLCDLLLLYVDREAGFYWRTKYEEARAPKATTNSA

P2X purinoceptor 2 [11] = molecular target: T5, P2X purinoceptor 2; assay: The compound was evaluated for antagonist activity against recombinant rat receptor P2X purinoceptor 2 (P2X2) at 30 uM, expressed in Xenopus oocytes; assay type: functional, cell-based, Oocyte
P2X purinoceptor 7 = P2X purinoceptor 7 (Rattus norvegicus, UniProt Q64663); assay: The compound was evaluated for antagonist activity against recombinant rat P2X purinoceptor 7 (P2X7); assay type: functional
P2X purinoceptor 7, sequence (Q64663 whole entry): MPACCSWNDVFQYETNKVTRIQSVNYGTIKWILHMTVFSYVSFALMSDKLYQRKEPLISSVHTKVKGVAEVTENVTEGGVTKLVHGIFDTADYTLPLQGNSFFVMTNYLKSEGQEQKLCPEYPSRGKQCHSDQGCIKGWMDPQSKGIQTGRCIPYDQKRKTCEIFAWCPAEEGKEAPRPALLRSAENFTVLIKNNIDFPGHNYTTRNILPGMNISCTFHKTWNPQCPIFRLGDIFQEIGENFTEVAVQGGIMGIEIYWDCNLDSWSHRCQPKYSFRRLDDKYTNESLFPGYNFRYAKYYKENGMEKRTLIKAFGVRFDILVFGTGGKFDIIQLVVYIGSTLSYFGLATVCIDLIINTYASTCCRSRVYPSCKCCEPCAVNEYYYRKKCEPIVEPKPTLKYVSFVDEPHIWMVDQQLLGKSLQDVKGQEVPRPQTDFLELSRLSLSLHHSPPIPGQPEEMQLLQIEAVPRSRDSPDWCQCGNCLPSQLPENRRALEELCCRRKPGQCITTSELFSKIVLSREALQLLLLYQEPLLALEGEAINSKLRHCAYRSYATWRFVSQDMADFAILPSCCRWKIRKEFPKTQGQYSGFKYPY

P2Y purinoceptor 4 = P2Y purinoceptor 4 (Homo sapiens, UniProt P51582); assay: The compound was evaluated for antagonist activity against phospholipase C coupled recombinant human P2Y purinoceptor 4 (P2Y4); assay type: functional
P2Y purinoceptor 4, sequence (P51582 whole entry): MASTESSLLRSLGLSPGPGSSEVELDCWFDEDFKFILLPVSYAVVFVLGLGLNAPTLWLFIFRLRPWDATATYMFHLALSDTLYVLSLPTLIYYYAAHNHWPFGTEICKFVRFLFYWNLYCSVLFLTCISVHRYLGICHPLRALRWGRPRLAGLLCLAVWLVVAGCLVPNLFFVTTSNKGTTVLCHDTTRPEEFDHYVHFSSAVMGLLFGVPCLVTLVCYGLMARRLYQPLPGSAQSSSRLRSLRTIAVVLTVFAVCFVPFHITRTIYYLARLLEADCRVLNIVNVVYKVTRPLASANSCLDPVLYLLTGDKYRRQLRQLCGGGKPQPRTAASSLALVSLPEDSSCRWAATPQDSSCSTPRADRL

P2Y purinoceptor 6 = P2Y purinoceptor 6 (Homo sapiens, UniProt Q15077); assay: The compound was evaluated for agonist activity against phospholipase C coupled recombinant human P2Y purinoceptor 6 (P2Y6); assay type: functional; conditions: concentration not given here
P2Y purinoceptor 6, sequence (Q15077 whole entry): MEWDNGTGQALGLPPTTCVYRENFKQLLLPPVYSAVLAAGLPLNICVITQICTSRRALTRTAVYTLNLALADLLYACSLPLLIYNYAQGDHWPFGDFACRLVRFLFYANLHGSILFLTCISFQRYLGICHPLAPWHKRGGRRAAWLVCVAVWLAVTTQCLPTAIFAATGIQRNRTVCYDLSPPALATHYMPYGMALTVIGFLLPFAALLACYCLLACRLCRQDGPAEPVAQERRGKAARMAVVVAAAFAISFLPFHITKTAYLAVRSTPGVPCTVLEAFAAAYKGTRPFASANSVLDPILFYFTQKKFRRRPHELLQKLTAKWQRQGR

P2X purinoceptor 1 [12] = molecular target: T2, P2X purinoceptor 1; assay: The compound was evaluated for antagonist activity against recombinant rat P2X purinoceptor 1 (P2X1) at 1 uM, expressed in Xenopus oocytes; assay type: functional, cell-based, Oocyte
[13] = molecular target: P2Y purinoceptor 1 (Rattus norvegicus) (UniProt P49651); assay: Evaluated for agonist activity against phospholipase C coupled P2Y purinoceptor 1 (P2Y1) of rat erythrocytes
P2Y purinoceptor 1 (Rattus norvegicus), sequence (P49651 whole entry, looked up): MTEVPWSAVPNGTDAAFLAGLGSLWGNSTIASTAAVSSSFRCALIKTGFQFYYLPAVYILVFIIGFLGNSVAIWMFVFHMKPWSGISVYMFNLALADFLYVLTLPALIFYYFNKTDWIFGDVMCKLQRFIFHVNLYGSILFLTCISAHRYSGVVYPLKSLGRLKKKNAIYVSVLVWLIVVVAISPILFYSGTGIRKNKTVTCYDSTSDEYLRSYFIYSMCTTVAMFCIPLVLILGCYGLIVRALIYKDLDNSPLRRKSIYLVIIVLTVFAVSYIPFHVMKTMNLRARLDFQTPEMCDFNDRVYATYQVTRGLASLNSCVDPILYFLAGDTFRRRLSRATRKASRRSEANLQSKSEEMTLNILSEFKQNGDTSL

T1 sequence (P47900 whole entry): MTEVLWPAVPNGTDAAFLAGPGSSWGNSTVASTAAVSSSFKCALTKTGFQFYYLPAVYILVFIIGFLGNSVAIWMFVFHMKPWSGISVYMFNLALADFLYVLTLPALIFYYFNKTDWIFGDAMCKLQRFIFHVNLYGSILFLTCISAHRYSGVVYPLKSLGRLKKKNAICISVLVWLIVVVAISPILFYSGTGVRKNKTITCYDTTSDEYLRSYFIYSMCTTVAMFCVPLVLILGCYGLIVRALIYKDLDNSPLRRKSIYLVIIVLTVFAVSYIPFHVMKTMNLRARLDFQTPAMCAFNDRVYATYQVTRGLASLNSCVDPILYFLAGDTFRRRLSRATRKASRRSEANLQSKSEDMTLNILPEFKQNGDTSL

C=CS(=O)(=O)c1cccc(Nc2cc(S(=O)(=O)O)c(N)c3c2C(=O)c2ccccc2C3=O)c1 [UNIBLUE A]
Kd (P2Y purinoceptor 1 [1]): > 100 µM | IC50 (P2X purinoceptor 1 [2]): 7.5 µM

Cc1nc(/N=N/c2ccc(C(=O)O)c(Cl)c2)c(COP(=O)(O)O)c(C=O)c1O
Kd (P2X purinoceptor 1 [3]): 1.6 µM | IC50 (P2X purinoceptor 1 [4]): 9.6 µM | Kd [5]: 2.9 µM

Nc1c(S(=O)(=O)O)cc(Nc2ccc(Nc3nc(Cl)nc(Nc4cccc(S(=O)(=O)O)c4)n3)c(S(=O)(=O)O)c2)c2c1C(=O)c1ccccc1C2=O [RB 2]
EC50 (P2X purinoceptor 4 [6]): 128 µM | EC50 (P2X purinoceptor 2 [7]): 0.36 µM | EC50 (P2Y purinoceptor 2): > 100 µM | EC50 (P2Y purinoceptor 11): > 100 µM | EC50 (P2Y purinoceptor 12): 0.025 µM | EC50 (P2Y purinoceptor 1 [8]): > 10 µM

Cc1nc(/N=N/c2ccc(S(=O)(=O)O)cc2S(=O)(=O)O)c(COP(=O)(O)O)c(C=O)c1O
EC50 (P2Y purinoceptor 1 [9]): 1 µM | EC50 (P2X purinoceptor 4 [10]): > 10 µM | EC50 (P2X purinoceptor 5): 2.6 µM | EC50 (P2X purinoceptor 6): > 100 µM | EC50 (P2X purinoceptor 2 [11]): 12 µM | EC50 (P2Y purinoceptor 2): > 10 µM | EC50 (P2X purinoceptor 7): 62 µM | EC50 (P2Y purinoceptor 12): > 100 µM | EC50 (P2Y purinoceptor 4): > 10 µM | inhibition (P2Y purinoceptor 6): 69% | EC50 (P2X purinoceptor 1 [12]): 0.099 µM | EC50 [13]: 18.2 µM
